Test results from patent publication US11590092B2, “Skin probiotic” (The Regents of the University of California, priority 2014, dated 2023).
“Also recorded” adds a separate entry of the source.

Assays:
USA300 = assay: In vivo skin wound infection with USA300; design: species or system ICR mice; conditions: for USA300 colonization / growth in the skin lesions: vs controls
Procedure: (§1) ICR mice (2-3-month-old female) were anesthetized by isoflurane. In each experiment, there were five mice per group. A wound 5 mm in length was made on the dorsal skin after shaving with electrical clippers. Once the skin wound was created, 5 μl of propionic acid (100 mM), PBS (pH 7.1) or PBS (pH 3.5) was applied topically to the wounded areas. The wounds were left uncovered throughout the experimental period. For bacterial infection, USA300 (2×10^6 CFU in PBS) was applied topically to the wounded areas 10 min after application of propionic acid or PBS. For the measurement of the extent of wound closure, a transparent parafilm was put on the top of the wounded skin. The wound area was marked on the parafilm by drawing an area which covered the whole skin wound. The lesion size was measured daily for 8 days was calculated using the ImageJ software [National Institutes of Health (NIH), Bethesda, Md., USA] and expressed as mm^2. Student's t-test was used to determine the significance of the differences between groups of the PBS (pH 7.1)- and propionic acid-treated mice as well as the PBS (pH 7.1)- and PBS (pH 3.5)-treated mice. Data represent the mean±SD from three independent experiments. All experiments using mice were conducted in a Biosafety Level 2 (BSL-2) facility and with accordance to institutional guidelines for animal experiments.
The USA300-infected skins treated with propionic acid and its controls were cross-sectioned, stained with hematoxylin and eosin (H&E) (Sigma, St. Louis, Mo.), and viewed on a Bx51 research microscope (Olympus, Melville, N.Y., USA). To determine the bacterial number in infected skin, the whole area of infected skin was excised 72 h after bacterial application. The excised skin was homogenized in 200 μl of sterile PBS with a hand tissue grinder. Bacterial CFUs in the skin were enumerated by plating serial dilutions (1:10^1-1:10^6) of the homogenate on a TSB agar plate. The plate was incubated for 24 h at 37° C. to count colonies.
ICR mice (2-3 month-old females; Harlan Labs, Placentia, Calif., USA) were anesthetized by isoflurane. A 5 mm wounds were made on the dorsal skin following shaving with electrical clippers. Following skin wounding, 5 μl of filter sterilized media obtained by incubating P. acnes (10^5 CFU/ml in 10 ml) with/without glycerol for 17 days or 5 μl of media with glycerol (control) were applied and to the wounded areas. To determine if propionic acid can prevent or mitigate the MRSA infection, 5 μl of 100 mM propionic acid was applied to the wounded areas. Application of PBS/pH (pH 3.5, corresponding to pH for 100 mM propionic acid) or PBS (pH 7.1) to the wounded areas served as controls. The wounds were left uncovered throughout the experimental period. USA300 (2×10^6 CFU in 5 μl PBS) was then applied to the wounds 10 min after application of various media, propionic acid or PBS controls. To measure the extent of wound closure, a transparent parafilm was placed over the wounded skin and the area was marked by outlining the area of the wound. The lesion size (mm^2) was measured daily for 8 days then calculated with ImageJ software (NIH, Bethesda, Md., USA). Five mice per group per experiments were used. A Student's t-test was used to determine the significance of the differences between groups. Data represent the mean±SD from three independent experiments. All experiments using mice were conducted in a biosafety level 2 (BSL-2) facility and in accordance with institutional guidelines for animal experiments. To determine the bacterial counts in infected skin, the infected skin was excised 72 h following bacterial application. The excised skin was weighted and homogenized in 200 μl of sterile PBS with a tissue grinder. Bacterial CFUs in the skin were enumerated by plating serial dilutions (1:10^1-1:10^6) of the homogenate on a TSB agar plate. The plate was incubated for 24 h at 37° C. to count colonies. […]

[1] = tested on: S. aureus strains ATCC29247 and CMCC(B)26003; assay: Inhibition of other S. aureus strains; assay type: cell-based, Staphylococcus aureus
C. albicans = assay: Minimal fungicidal concentration test against C. albicans; assay type: cell-based, Candida albicans; conditions: MBC/MFC test
Procedure: To determine the minimal bactericidal concentration (MBC) and minimal fungicidal concentration (MFC) of propionic acid, microorganisms (10^6 colony forming units (cfu)/ml) were incubated overnight in media with propionic acid (1.25-2,000 mM) in a 96-well microplate (100 μl per well). The control only received PBS. After incubation, the microorganisms were diluted 1:10-1:10^6 into PBS. The dilutions (5 μl) were spotted onto agar media to count cfu; MBC/MFC were determined at 99.9% killing level. To determine the effect of pH on growth of S. aureus USA300, the bacterium was incubated in TSB at pH 5.8 and 6.8, and TSB with 25 mM propionic acid at pH 5.8 and 6.8 (buffered with 4-(2-hydroxyethyl)-1-piperazineethanesulfonic acid (HEPES)) in a 96-well microplate overnight before spotting onto agar plates.

[2] = Skin wound healing without USA300 inoculation; assay type: in vivo, ICR mice; conditions: topical 100 mM propionic acid vs PBS (pH 7.1) and PBS/pH (pH 3.5), 8-day period
Procedure: as §1

Structure (SMILES): CCC(=O)O [propionic acid]
- sizes of USA300-infected skin lesions (USA300; topical 100 mM propionic acid 10 min before USA300 (2×10^6 CFU), vs PBS): considerably decreased; also recorded: significantly reduced
- bacterial numbers in USA300-infected lesions (USA300; topical 100 mM propionic acid, three days after bacterial application (FIG. 10F)): 6.9±0.7×10^7 CFU
- bacterial numbers in USA300-infected lesions (USA300; topical 100 mM propionic acid, three days after bacterial application (FIG. 11F)): 1.4±1.4×10^7 CFU/g
- histological observation (H&E) of inflammatory response in wounds (USA300; topical 100 mM propionic acid, vs PBS-treated wounds): less pronounced inflammatory response; also recorded: attenuated inflammatory response
- USA300 colonization / growth in the skin lesions (USA300; topical 100 mM propionic acid): considerably decreased
- USA300 colonization / growth in the skin lesions (USA300; topical 100 mM propionic acid, listed as Propionic acid): significantly decreased
- inhibition of S. aureus strains besides USA300 [1]: inhibit
- concentration that completely killed C. albicans (C. albicans): greater than or equal to 25 mM
- concentration that effectively suppressed the growth of C. albicans (C. albicans): greater than 10 mM
- changes in lesion sizes of wounds without USA300 inoculation [2]: not statistically different
